Test results: ChEMBL document CHEMBL1671693, “Antimicrobial resistance of Listeria monocytogenes strains isolated from humans in France” (2010)
Values after ≈ are worked out from the molar mass of the structure shown.

Key:
Listeria monocytogenes [1] = assay: Antibacterial activity against Listeria monocytogenes isolated from humans harboring cat gene; assay type: functional
Listeria monocytogenes [2] = assay: Antibacterial activity against Listeria monocytogenes isolated from humans harboring lde gene
Listeria monocytogenes [3] = assay: Antibacterial activity against Listeria monocytogenes isolated from humans with putative chromosomal mutation; assay type: functional
Listeria monocytogenes [4] = assay: Antibacterial activity against Listeria monocytogenes isolated from humans harboring tet(M) gene; assay type: functional
Listeria monocytogenes [5] = assay: Antibacterial activity against Listeria monocytogenes isolated from humans harboring int-tn gene; assay type: functional
Listeria monocytogenes [6] = assay: Antibacterial activity against Listeria monocytogenes isolated from humans harboring putative ribosomal mutation; assay type: functional
Listeria monocytogenes [7] = assay: Antibacterial activity against Listeria monocytogenes isolated from humans harboring mutant dfrD gene

O=C(N[C@H](CO)[C@H](O)c1ccc([N+](=O)[O-])cc1)C(Cl)Cl [CHLORAMPHENICOL]
MIC (Listeria monocytogenes [1]): 48 µg/mL (≈ 149 µM)

O=C(O)c1cn(C2CC2)c2cc(N3CCNCC3)c(F)cc2c1=O [CIPROFLOXACIN]
MIC (Listeria monocytogenes [2]): > 6 µg/mL

CC[C@H]1OC(=O)[C@H](C)[C@@H](O[C@H]2C[C@@](C)(OC)[C@@H](O)[C@H](C)O2)[C@H](C)[C@@H](O[C@@H]2O[C@H](C)C[C@H](N(C)C)[C@H]2O)[C@](C)(O)C[C@@H](C)C(=O)[C@H](C)[C@@H](O)[C@]1(C)O [ERYTHROMYCIN]
MIC (Listeria monocytogenes [3]): 256 µg/mL (≈ 349 µM)

CN(C)c1ccc(O)c2c1C[C@H]1C[C@H]3[C@H](N(C)C)C(O)=C(C(N)=O)C(=O)[C@@]3(O)C(O)=C1C2=O [MINOCYCLINE]
MIC (Listeria monocytogenes [4]): 8 µg/mL (≈ 17.5 µM)
MIC (Listeria monocytogenes [5]): 8 µg/mL (≈ 17.5 µM)

CN[C@@H]1[C@H](O[C@H]2[C@H](O[C@H]3[C@H](O)[C@@H](O)[C@H](N=C(N)N)[C@@H](O)[C@@H]3N=C(N)N)O[C@@H](C)[C@]2(O)C=O)O[C@@H](CO)[C@H](O)[C@H]1O [STREPTOMYCIN]
MIC (Listeria monocytogenes [6]): 256 µg/mL (≈ 440 µM)

CN(C)[C@@H]1C(O)=C(C(N)=O)C(=O)[C@@]2(O)C(O)=C3C(=O)c4c(O)cccc4[C@@](C)(O)[C@H]3C[C@@H]12 [TETRACYCLINE]
MIC (Listeria monocytogenes [4]): 16 µg/mL (≈ 36 µM)
MIC (Listeria monocytogenes [5]): 16 µg/mL (≈ 36 µM)

COc1cc(Cc2cnc(N)nc2N)cc(OC)c1OC [TRIMETHOPRIM]
MIC (Listeria monocytogenes [7]): 1020 µg/mL (≈ 3530 µM)
